Measurements as given in ChEMBL document CHEMBL5724696, “Autophagy assay results for EUbOPEN Chemogenomics Library” (2024).

How the values were obtained:
[1] = system: U2OS; assay: (§1) Here: values are normalized to the positive (DMSO; basel flux = defined as 100% suppression) and negative (250nM Torin1; mTOR inhibitor; maximal inducer of autophagy defined as 0% suppression) control compounds and represented as % of ER-phagy suppression. […] The impact of autophagy induction on cells is complex and depends on the affected target. […] Of note, treatment concentrations may be sub-optimal for specific compounds, leading to false negative annotations.; format: functional, Homo sapiens; details: Compound Concentration 1 uM, Culturing Media DMEM, 1 % Penicillin/Streptomycin, 10% Fetal bovin serum Add-On: blasticidin, Screening Media Control DMEM, 10% Fetal bovin serum Add-On: 1 µg/ml Doxycyclin, Screening Media Samples DMEM, 10% Fetal bovin serum Add-On: 1 µg/ml Doxycyclin 250nM Torin1
[2] = system: U2OS; assay: as §1; format: functional, Homo sapiens; details: Compound Concentration 1 uM, Culturing Media DMEM, 1 % Penicillin/Streptomycin, 10% Fetal bovin serum Add-On: blasticidin, Screening Media Control DMEM, 10% Fetal bovin serum Add-On: 1 µg/ml Doxycyclin, Screening Media Samples DMEM, 10% Fetal bovin serum Add-On: 1 µg/ml Doxycyclin 250nM Torin1; remark: listed apart in the source

Row | Compound | ER-phagy suppression ([1]; Timepoint 12 hours) | ER-phagy suppression ([1]; Timepoint 24 hours) | ER-phagy suppression ([1]; Timepoint 36 hours) | ER-phagy suppression ([1]; Timepoint 60 hours) | ER-phagy suppression ([2]; Timepoint 12 hours) | ER-phagy suppression ([2]; Timepoint 24 hours) | ER-phagy suppression ([2]; Timepoint 36 hours) | ER-phagy suppression ([2]; Timepoint 54 hours)
1 | O=c1cc(N2CCOCC2)oc2c1ccc1ccccc12 | -2.095% | 14.4083% | 8.467% | 13.3057% | 4.944% | -13.6038% | -17.5746% | -11.078%
2 | NC(=O)c1ccc2[nH]c(-c3ccc(Oc4ccc(Cl)cc4)cc3)nc2c1 | -30.239% | -28.4978% | -29.0961% | -19.7873% | -2.841% | -13.7146% | -23.7031% | -21.3336%
3 | COc1cc(Nc2nccc(-c3cnn4nc(OC)ccc34)n2)cc(C(F)(F)F)c1 | 6.994% | 7.618% | 14.0346% | 17.1827% | 3.334% | -9.159% | -23.3987% | -10.034%
4 | O=c1cc(N2CCOCC2)oc2c(-c3cccc4c3sc3ccccc34)cccc12 | 23.1915% | 21.6983% | 3.92% | -4.5% | 29.2209% | 24.7237% | 22.7043% | 31.557%
5 | C[C@@H]1CN(CC(=O)Nc2ccc3c(c2)Cc2cccc(-c4cc(=O)cc(N5CCOCC5)o4)c2S3)C[C@H](C)O1 | 56.3007% | 45.431% | 40.5334% | 35.1087% | 73.6735% | 67.8887% | 67.4998% | 71.8155%
6 | O=c1[nH]c2ccc(Cl)cc2c(N[C@@H]2CN3CCC2CC3)c1-c1nc2ccccc2[nH]1 | -7.286% | 62.247% | 75.9097% | 86.9183% | 27.312% | 66.3141% | 83.8118% | 95.864%
7 | COc1cc(Nc2ccnc3ccc(Br)cc23)cc(OC)c1OC | 44.6642% | 57.8089% | 50.5911% | 41.5059% | 45.26% | 43.6651% | 45.8783% | 55.0501%
8 | CC(C)C(=O)Nc1n[nH]c2cc(-c3cccc(NS(=O)(=O)C4CC4)c3)ccc12 | 0.1153% | 4.089% | -6.11% | -14.0127% | 3.579% | -4.784% | -8.796% | -3.527%
9 | COc1cc(N(C)c2ccnc3ccc(C(F)(F)F)cc23)cc(OC)c1OC | -0.7345% | 0.8414% | -10.6797% | -10.2278% | 8.809% | -16.6853% | -22.3535% | -19.7391%
10 | CN1CCN(Cc2cc(NC(=O)c3ccc4c(c3)CN(c3ccccc3)CC4)cc(C(F)(F)F)c2)CC1 | -14.1546% | -18.3974% | -8.125% | -14.9547% | 8.416% | 6.996% | 11.6775% | 26.4341%
11 | Cc1cn(-c2cc(NC(=O)c3ccc4c(c3)CN(c3cncnc3)C[C@@H]4C)cc(C(F)(F)F)c2)cn1 | -5.176% | -7.191% | -10.2809% | -23.2702% | -11.2753% | -32.01% | -29.9662% | -28.2988%
12 | CN(C)C(=O)/C(C#N)=C/c1ccc(-c2nc3cnc4[nH]ccc4c3n2C2CCCCC2)o1 | -17.3558% | -33.4897% | -33.7439% | -36.9146% | -7.884% | -25.0962% | -37.4199% | -35.162%
13 | O=C(O)CSc1ncnc2cc(-c3cc4ccccc4s3)sc12 | -19.6328% | -17.1874% | -14.8161% | -4.092% | 0.5897% | -12.2442% | -19.5389% | -8.371%
14 | O=C(NCCCN1CCOC1=O)c1cnc(NCc2cc(Br)ccc2Br)nc1NC1CCCC1 | -10.749% | -21.0292% | -39.1494% | -40.5418% | -5.816% | -18.1911% | -20.9165% | -12.0292%
15 | O=C(O)CSc1ncnc2sc(-c3cc4ccccc4s3)cc12 | -22.3534% | -5.037% | -13.712% | -10.482% | -2.052% | -18.7288% | -21.1701% | -12.8701%
16 | CCN(Cc1ccc(Cl)cc1)c1ncc(C(=O)NCCCN2CCCC2=O)c(NC2CCCC2)n1 | 19.3372% | 13.3398% | 3.8795% | -6.981% | -0.9186% | -13.7517% | -21.2457% | -16.9406%
17 | O=C(NCc1ccccc1)c1ccc(S(=O)(=O)NCc2ccccc2)cc1 | -6.979% | -12.761% | -1.702% | -8.939% | 3.538% | -5.467% | -1.304% | 10.3755%
18 | CCCCN(Cc1ccccc1)C(=O)c1ccc(S(=O)(=O)Nc2ccccc2)cc1 | -1.971% | -6.76% | -4.753% | -26.4705% | -7.8361% | -20.651% | -23.4672% | -25.4681%
19 | CN(C)C(=O)/C(C#N)=C/c1ccc(-c2nc3cnc4c(ccn4C)c3n2C2CCCCC2)o1 | -5.937% | -19.1708% | -21.5711% | -15.3462% | -7.575% | -15.5162% | -12.7474% | -14.5878%
20 | CN(C)[C@H]1C[C@H](n2cnc(-c3ccc(F)cn3)c2-c2ccnc3[nH]ccc23)C1 | 23.5482% | 2.98% | 12.4603% | 17.3235% | 22.3816% | 21.0505% | 31.8624% | 38.0418%
21 | Cn1ccc(Cn2cnc(-c3ccc(F)cc3)c2-c2ccnc3[nH]ccc23)n1 | -25.1326% | -19.5738% | 5.753% | 8.035% | 3.096% | -2.866% | 1.074% | 6.853%
22 | CN(C)C1CC(n2cnc(-c3ccc(F)cc3)c2-c2ccnc3[nH]ccc23)C1 (centres undefined) | -29.1009% | -31.4509% | -16.9551% | -15.1332% | 7.195% | 4.326% | 10.3106% | 11.0097%
23 | Fc1ccc(-c2ncn(Cc3nc[nH]n3)c2-c2ccnc3[nH]ccc23)cc1 | 1.163% | 2.249% | 8.909% | 19.5799% | -8.055% | -11.2707% | -18.4467% | -16.7104%
